Target: T1, DAUDA–FABP1 (Homo sapiens, UniProt P07148)
T1 construct: GST (N, cleaved yes); made in house; host or cells: Escherichia coli DH5α
T1 sequence (P07148 with tags, fused parts or gaps): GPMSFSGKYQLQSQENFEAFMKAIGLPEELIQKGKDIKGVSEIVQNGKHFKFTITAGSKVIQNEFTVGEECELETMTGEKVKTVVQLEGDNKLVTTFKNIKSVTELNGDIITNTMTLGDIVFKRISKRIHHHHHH
Assay: Stopped-flow kinetics of palmitate binding to DAUDA–FABP1
Experimental: As mentioned previously, palmitate was selected to measure binding kinetics to DAUDA–FABP1 because of the low Kd observed with the protein (Fig. 5D, Table 1). When a ligand binds to DAUDA-bound FABP1, DAUDA is displaced (potentially to the second ligand-binding site, forming a ternary complex; Figure 2, Figure 5 and Figure 2, Figure 5A) and attenuates the fluorescence of the system (Fig. 5). Taking advantage of this phenomenon, we preincubated FABP1 (0.5 μM) with DAUDA (0.5 μM) to form the fluorescent complex. This complex was then rapidly mixed with palmitate (0.5 μM to 25 μM), and the attenuation of fluorescence was monitored as palmitate binds and displaces DAUDA. The data were fit to double exponential equations, and the rate of initial binding was not observed to vary with palmitate concentration (Fig. 7). A kon value (k5) of 2.3 ± 0.2 × 10^7 M^−1 s^−1 was calculated from the data (Fig. 7A).
Figure 7 Kinetics of binding of palmitate to FABP1. A stoichiometric mixture of DAUDA and FABP1 (0.5 μM) was rapidly combined with (A) 0.5 μM, (B) 5 μM, (C) 12.5 μM, and (D) 25 μM palmitate, and the attenuation of fluorescence (λex = 335 nm, λem > 420 nm) was monitored over time (as FD → FDS, Fig. 5A). The plots were fit to double exponential equations, and the following rate constants for each phase were extracted: A, k1 11 ± 1 s^−1, k2 0.04 ± 0.003 s^−1; B, k1 16± 1s^−1, k2 0.017 ± 0.004 s^−1; C, k1 14 ± 1 s^−1, k2 0.05 ± 0.01 s^−1; D, k1 13 ± 1 s^−1, k2 0.07 ± 0.01 s^−1. Each trace corresponds to ≥6 averaged replicate traces. DAUDA, 11-dansylaminoundecanoic acid; FABP1, fatty acid binding protein.
The kon determination of FABP1 with palmitate was done in the same manner as described with DAUDA but with the modification that the solutions mixed in the stopped-flow spectrofluorometer were (A) FABP1 (1 μM) and DAUDA (1 μM, aliquoted from a stock solution prepared in K2CO3 [50 mM], see “Preparation of DAUDA stock solutions”) and (B) palmitate (1–50 μM, aliquoted from a stock solution prepared in K2CO3 [50 mM]). Both mixing solutions (2 ml) were prepared in potassium phosphate buffer (100 mM, pH 7.4). The data collection, processing, and analysis proceeded via the same steps described earlier. The only difference in interpretation is that the signal (binding of palmitate) displaces DAUDA in the FABP1-binding site, so we observe an attenuation of fluorescence.

k1 (fast phase), palmitate binding to DAUDA–FABP1 (0.5 μM palmitate): 11 ± 1 s⁻¹
k2 (slow phase), palmitate binding to DAUDA–FABP1 (0.5 μM palmitate): 0.04 ± 0.003 s⁻¹
k1 (fast phase), palmitate binding to DAUDA–FABP1 (5 μM palmitate): 16 ± 1 s⁻¹
k2 (slow phase), palmitate binding to DAUDA–FABP1 (5 μM palmitate): 0.017 ± 0.004 s⁻¹
k1 (fast phase), palmitate binding to DAUDA–FABP1 (12.5 μM palmitate): 14 ± 1 s⁻¹
k2 (slow phase), palmitate binding to DAUDA–FABP1 (12.5 μM palmitate): 0.05 ± 0.01 s⁻¹
k1 (fast phase), palmitate binding to DAUDA–FABP1 (25 μM palmitate): 13 ± 1 s⁻¹
k2 (slow phase), palmitate binding to DAUDA–FABP1 (25 μM palmitate): 0.07 ± 0.01 s⁻¹
kon (DAUDA and FABP1 0.5 μM each, read-out: kon of palmitate to DAUDA–FABP1 (k5)): 2.3e+07 M⁻¹ s⁻¹
Compound: CCCCCCCCCCCCCCCC(=O)O [Palmitate (C16), palmitate]

Source: publication PMC11847541, “Liver fatty acid binding protein FABP1 transfers substrates to cytochrome P450 4A11 for catalysis” (The Journal of Biological Chemistry, 2025)
